Literature values, collected in paper PMC6627067, “Probing Multi-Target Action of Phlorotannins as New Monoamine Oxidase Inhibitors and Dopaminergic Receptor Modulators with the Potential for Treatment of Neuronal Disorders” (Marine Drugs, 2019).

Columns and labels:
[1] = target: T1, hMAO-A (Homo sapiens, UniProt P21397); design: method as in PMID 28251489; conditions: cited from earlier work
T1 sequence (P21397 1-527): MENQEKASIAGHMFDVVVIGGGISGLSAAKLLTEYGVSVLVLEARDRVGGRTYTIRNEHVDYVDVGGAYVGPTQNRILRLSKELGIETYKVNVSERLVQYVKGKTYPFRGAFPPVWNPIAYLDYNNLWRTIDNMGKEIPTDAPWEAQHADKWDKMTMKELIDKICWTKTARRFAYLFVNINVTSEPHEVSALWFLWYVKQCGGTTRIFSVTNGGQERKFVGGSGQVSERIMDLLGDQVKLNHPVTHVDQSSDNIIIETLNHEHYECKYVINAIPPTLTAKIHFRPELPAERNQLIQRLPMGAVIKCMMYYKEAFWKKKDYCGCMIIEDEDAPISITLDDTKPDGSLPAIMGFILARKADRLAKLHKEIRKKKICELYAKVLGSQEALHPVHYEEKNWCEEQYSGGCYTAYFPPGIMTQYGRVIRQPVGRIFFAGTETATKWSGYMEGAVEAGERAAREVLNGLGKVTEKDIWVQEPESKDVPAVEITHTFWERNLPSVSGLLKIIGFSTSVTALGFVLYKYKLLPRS

[2] = target: T2, hMAO-B (Homo sapiens, UniProt P27338); design: method as in PMID 28251489; conditions: cited from earlier work
T2 sequence (P27338 1-520): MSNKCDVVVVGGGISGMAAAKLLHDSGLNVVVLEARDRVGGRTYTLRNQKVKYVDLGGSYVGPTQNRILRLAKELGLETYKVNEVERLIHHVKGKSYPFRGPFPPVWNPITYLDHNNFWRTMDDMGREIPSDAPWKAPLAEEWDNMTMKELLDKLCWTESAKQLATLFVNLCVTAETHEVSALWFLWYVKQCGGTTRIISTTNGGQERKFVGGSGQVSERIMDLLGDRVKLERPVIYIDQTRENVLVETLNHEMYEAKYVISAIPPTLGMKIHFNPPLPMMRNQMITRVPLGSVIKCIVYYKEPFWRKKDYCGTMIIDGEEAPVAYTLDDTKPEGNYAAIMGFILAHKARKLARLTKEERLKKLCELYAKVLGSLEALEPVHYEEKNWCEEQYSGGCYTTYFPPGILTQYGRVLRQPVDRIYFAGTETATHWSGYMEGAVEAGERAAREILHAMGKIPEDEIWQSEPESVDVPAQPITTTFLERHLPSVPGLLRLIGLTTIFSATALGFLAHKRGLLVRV

[3] = target: T3, hM5 (CHRM5) (Homo sapiens, UniProt P08912); conditions: previous GPCR cell-based study; cited from earlier work
T3 sequence (P08912 1-532): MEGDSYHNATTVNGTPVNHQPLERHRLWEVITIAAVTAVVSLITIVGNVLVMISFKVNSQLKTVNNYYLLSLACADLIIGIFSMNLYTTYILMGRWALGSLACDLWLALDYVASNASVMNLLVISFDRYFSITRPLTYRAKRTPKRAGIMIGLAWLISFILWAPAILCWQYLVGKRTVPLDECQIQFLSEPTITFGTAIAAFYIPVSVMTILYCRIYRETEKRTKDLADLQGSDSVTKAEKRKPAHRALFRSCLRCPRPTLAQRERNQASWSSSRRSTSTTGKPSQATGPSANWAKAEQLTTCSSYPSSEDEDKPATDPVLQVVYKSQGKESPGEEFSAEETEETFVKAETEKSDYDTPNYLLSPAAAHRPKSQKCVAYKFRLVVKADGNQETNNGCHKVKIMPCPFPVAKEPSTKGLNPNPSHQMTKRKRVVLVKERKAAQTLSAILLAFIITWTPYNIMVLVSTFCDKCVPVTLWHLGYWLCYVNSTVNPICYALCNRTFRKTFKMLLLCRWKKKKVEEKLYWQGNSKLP

[4] = target: hNK1 (TACR1) (Homo sapiens, UniProt P25103); conditions: previous GPCR cell-based study; cited from earlier work
[5] = target: T4, h5-HT1A (HTR1A) (Homo sapiens, UniProt P08908); conditions: previous GPCR cell-based study; cited from earlier work
T4 sequence (P08908 1-422): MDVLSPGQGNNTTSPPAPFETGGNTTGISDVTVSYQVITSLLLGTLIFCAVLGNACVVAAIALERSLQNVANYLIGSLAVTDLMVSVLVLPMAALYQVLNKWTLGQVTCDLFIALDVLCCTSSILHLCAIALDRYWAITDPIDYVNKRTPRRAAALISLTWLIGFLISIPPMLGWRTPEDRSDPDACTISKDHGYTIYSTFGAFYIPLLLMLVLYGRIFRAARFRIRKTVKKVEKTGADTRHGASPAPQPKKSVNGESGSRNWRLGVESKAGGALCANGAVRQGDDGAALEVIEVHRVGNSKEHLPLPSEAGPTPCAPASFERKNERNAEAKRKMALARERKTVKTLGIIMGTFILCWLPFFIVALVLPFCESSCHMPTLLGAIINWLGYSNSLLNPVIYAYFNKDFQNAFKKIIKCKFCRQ

[6] = target: hV1A (AVPR1A) (Homo sapiens, UniProt P37288); conditions: previous GPCR cell-based study; cited from earlier work
[7] = target: hD1 (DRD1) (Homo sapiens, UniProt P21728); design: host or cells: CHO cells; conditions: previous GPCR cell-based study; cited from earlier work
[8] = target: hD3 (DRD3) (Homo sapiens, UniProt P35462); design: host or cells: CHO cells; conditions: previous GPCR cell-based study; cited from earlier work
[9] = target: T5, hD4 (DRD4) (Homo sapiens, UniProt P21917); design: host or cells: CHO cells; conditions: previous GPCR cell-based study; cited from earlier work
T5 sequence (P21917 1-419): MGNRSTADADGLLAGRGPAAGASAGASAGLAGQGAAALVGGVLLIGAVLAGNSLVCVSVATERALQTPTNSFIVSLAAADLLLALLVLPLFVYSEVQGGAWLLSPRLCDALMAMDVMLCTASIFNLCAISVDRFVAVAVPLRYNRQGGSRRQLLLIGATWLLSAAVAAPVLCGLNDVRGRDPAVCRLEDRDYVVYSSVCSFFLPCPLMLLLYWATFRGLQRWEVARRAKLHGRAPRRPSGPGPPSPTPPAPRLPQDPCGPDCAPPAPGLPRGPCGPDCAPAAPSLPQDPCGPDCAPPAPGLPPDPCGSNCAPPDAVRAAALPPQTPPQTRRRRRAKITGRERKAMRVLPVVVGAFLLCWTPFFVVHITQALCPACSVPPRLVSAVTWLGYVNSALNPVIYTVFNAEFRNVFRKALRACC

Sequence of hD3 (DRD3) (P35462 whole entry): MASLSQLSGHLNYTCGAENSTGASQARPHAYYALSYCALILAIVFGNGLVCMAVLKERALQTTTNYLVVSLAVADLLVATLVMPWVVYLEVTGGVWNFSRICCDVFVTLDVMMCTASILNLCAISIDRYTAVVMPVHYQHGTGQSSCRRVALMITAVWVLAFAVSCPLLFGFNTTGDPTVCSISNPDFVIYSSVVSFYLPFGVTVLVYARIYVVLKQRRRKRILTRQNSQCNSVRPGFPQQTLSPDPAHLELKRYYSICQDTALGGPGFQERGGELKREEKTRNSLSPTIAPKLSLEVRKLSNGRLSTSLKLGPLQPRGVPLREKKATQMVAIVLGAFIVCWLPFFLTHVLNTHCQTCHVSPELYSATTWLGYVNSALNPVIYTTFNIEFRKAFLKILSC
Sequence of hNK1 (TACR1) (P25103 whole entry): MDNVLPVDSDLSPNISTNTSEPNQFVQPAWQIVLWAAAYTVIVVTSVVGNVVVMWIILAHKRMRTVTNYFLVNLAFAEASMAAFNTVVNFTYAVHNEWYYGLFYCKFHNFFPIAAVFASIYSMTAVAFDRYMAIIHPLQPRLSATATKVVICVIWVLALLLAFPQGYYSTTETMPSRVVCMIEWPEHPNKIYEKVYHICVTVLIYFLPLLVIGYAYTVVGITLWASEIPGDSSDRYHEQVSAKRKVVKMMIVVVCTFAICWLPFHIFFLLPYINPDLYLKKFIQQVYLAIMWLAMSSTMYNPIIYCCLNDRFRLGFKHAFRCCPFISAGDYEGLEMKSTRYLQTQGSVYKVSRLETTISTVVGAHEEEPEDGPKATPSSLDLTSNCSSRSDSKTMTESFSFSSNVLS
Sequence of hD1 (DRD1) (P21728 whole entry): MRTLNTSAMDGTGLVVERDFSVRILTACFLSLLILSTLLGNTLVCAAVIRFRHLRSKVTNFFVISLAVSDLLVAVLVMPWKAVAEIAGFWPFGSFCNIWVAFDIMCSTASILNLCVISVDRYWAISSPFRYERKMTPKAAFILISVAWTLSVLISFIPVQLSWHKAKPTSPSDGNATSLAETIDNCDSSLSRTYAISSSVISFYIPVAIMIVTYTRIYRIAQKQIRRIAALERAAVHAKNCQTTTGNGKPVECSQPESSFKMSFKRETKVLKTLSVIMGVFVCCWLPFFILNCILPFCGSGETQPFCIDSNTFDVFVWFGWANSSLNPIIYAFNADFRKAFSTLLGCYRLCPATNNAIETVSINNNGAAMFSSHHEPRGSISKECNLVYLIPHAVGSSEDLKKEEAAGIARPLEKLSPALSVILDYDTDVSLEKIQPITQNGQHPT
Sequence of hV1A (AVPR1A) (P37288 whole entry): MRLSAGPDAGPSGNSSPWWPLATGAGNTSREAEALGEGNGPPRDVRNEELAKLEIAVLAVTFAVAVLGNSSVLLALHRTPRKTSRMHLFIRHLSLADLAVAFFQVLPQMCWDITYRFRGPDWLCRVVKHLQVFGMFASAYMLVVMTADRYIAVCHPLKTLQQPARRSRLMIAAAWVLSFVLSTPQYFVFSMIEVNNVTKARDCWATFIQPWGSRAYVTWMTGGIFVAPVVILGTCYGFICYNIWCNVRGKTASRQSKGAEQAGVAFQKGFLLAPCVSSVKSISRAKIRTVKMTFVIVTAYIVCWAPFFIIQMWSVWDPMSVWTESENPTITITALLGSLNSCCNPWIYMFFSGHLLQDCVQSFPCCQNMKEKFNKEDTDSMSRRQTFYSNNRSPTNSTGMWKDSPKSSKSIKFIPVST

## Oc1cc(O)cc(Oc2c(O)cc(O)c3c2Oc2c(O)cc(O)cc2O3)c1 [Eckol, eckol]
[1]; NC = noncompetitive, Mixed = mixed type
  Inhibition type hMAO-A: Mixed
[1]
  Ki: 20.3 µM
[1]; ratio of hMAO-A IC50/hMAO-B IC50
  SI (selective index): 0.09
[1]; recombinant hMAO-A, obtained from the literature
  IC50: 7.2 ± 0.71 µM
[2]
  Ki: 163 µM
[2]; recombinant hMAO-B, obtained from the literature
  IC50: 83.4 ± 1.48 µM
[3]
  Effect on M5 receptor: null effects
[4]
  Effect on NK1 receptor: null effects
[5]
  Effect on 5HT1A receptor: null effects
[6]
  Effect on V1A receptor: null effects
[7]
  Effect on D1R: null effects
[8]
  Effect on hD3R: agonist
[9]
  Effect on hD4R: agonist
